Experimental findings from ChEMBL document CHEMBL1134300, “Oxindole-based inhibitors of cyclin-dependent kinase 2 (CDK2): design, synthesis, enzymatic activities, and X-ray crystallographic analysis” (J Med Chem, 2001) are described below.

In experiment [1] the target is Cyclin-dependent kinase 2 (Homo sapiens, UniProt P24941).
Description: Inhibitory activity against human cyclin-dependent kinase 2 (CDK2)
The target of experiment [2] is Cyclin-dependent kinase 1 (Homo sapiens, UniProt P06493).
Sequence of Cyclin-dependent kinase 1 (P06493 whole entry): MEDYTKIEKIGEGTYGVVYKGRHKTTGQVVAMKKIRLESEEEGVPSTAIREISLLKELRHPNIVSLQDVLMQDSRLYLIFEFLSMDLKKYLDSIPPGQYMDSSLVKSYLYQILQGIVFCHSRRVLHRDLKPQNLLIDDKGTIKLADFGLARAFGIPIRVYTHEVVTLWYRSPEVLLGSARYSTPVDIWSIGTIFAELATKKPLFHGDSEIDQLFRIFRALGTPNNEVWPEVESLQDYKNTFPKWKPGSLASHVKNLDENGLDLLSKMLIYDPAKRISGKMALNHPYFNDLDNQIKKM
Description: Inhibitory activity against human cyclin-dependent kinase 1 (CDK1)

One may read the IC50 as the concentration that inhibits the measured activity by half. As for `COCCOCCOCCOCCNS(=O)(=O)c1ccc(N/C=C2\C(=O)Nc3ccc4ncsc4c32)cc1`, the IC50 in experiment [1] amounted to 4.5 nM; in experiment [2], 72 nM.

In the case of `N=C(N)NS(=O)(=O)c1ccc(N/C=C2\C(=O)Nc3ccc4ncsc4c32)cc1`, the IC50 in experiment [1] was found to be 3.3 nM; in experiment [2] it was 45 nM.

`CC(C)Oc1cccc2c1C(=NNc1ccc(S(N)(=O)=O)cc1)C(=O)N2`: the values for the IC50 in experiment [1] and in experiment [2] were 3.4 nM and 41 nM, respectively.

As to `NS(=O)(=O)c1ccc(NN=C2C(=O)Nc3cc(Oc4ccccc4)ccc32)cc1`, the IC50 in experiment [1] and in experiment [2] was more than 10000 nM throughout.

Consider `Cc1ccc2c(c1Cl)C(=NNc1ccc(S(N)(=O)=O)cc1)C(=O)N2`, for which the IC50 in experiment [1] came out at 13 nM; in experiment [2], 250 nM.

For the compound `CCOc1cccc2c1C(=NNc1ccc(S(N)(=O)=O)cc1)C(=O)N2`, the IC50 in experiment [1] was found to be 93 nM; in experiment [2] it was 550 nM.

For the compound `Cc1ccc2c(c1)C(=NNc1ccc(S(N)(=O)=O)cc1)C(=O)N2` [GW275944X], the IC50 in experiment [1] worked out at 46 nM; in experiment [2] it was 330 nM.

With `NS(=O)(=O)c1ccc(N/N=C2\C(=O)Nc3ccc(-c4cnco4)cc32)cc1` [GW276655X], the IC50 in experiment [1] came out at 2.3 nM; in experiment [2] it was 10 nM.

On to `NS(=O)(=O)c1ccc(N/N=C2\C(=O)Nc3ccc(Cl)cc32)cc1` [GW280670X], for which the concentration for half-maximal inhibition (IC50) in experiment [1] came to 43 nM; in experiment [2], 300 nM.

For the compound `NS(=O)(=O)c1ccc(NN=C2C(=O)Nc3ccc(C(=O)NCCCn4ccnc4)cc32)cc1` [GW290597X], the IC50 amounted to 25 nM in experiment [1] and 230 nM in experiment [2].

As to `CC(C)c1ccc2c(c1)NC(=O)/C2=N/Nc1ccc(S(N)(=O)=O)cc1` [GW300653X], the IC50 came out at 75 nM in experiment [1] and 790 nM in experiment [2].

Take `NS(=O)(=O)c1ccc(NN=C2C(=O)Nc3ccc(C(=O)NCc4ccncc4)cc32)cc1` [GW300657X]: the figures for the concentration for half-maximal inhibition (IC50) in experiment [1] and in experiment [2] were 8.9 nM and 74 nM, respectively.

For `CC(C)(CO)CNC(=O)c1ccc2c(c1)C(=NNc1ccc(S(N)(=O)=O)cc1)C(=O)N2` [GW301784X], the figures for the IC50 in experiment [1] and in experiment [2] were 6.8 nM and 60 nM, respectively.

Regarding `NS(=O)(=O)c1ccc(N/N=C2\C(=O)Nc3ccc4ncccc4c32)cc1` [GW305178X], the IC50 stood at 1.6 nM in experiment [1] and 12 nM in experiment [2].

Turning to `C/C(Nc1ccc(S(N)(=O)=O)cc1)=C1/C(=O)Nc2ccccc21` [GW335962X], the 50% inhibitory concentration (IC50) in experiment [1] worked out at 360 nM; in experiment [2], 2300 nM.

In the case of `CC(C)=Cc1cccc2c1C(=NNc1ccc(S(N)(=O)=O)cc1)C(=O)N2` [GW396574X], the IC50 in experiment [1] is 1.5 nM; in experiment [2], 15 nM.

`CN(C)c1ccc2c(c1)/C(=C/Nc1ccc(S(N)(=O)=O)cc1)C(=O)N2` [GW416469X]: the concentration for half-maximal inhibition (IC50) in experiment [1] was 310 nM; in experiment [2], 2800 nM.

Take `CC(C)COC(=O)c1ccc2c(c1)/C(=C/Nc1ccc(S(N)(=O)=O)cc1)C(=O)N2` [GW416981X]: the figures for the IC50 in experiment [1] and in experiment [2] were 3 nM and 19 nM, respectively.

Turning to `NS(=O)(=O)c1ccc(NC=C2C(=O)Nc3ccc4ncsc4c32)cc1` [GW589933X], the results for the IC50 in experiment [1] and in experiment [2] were 2.8 nM and 29 nM, respectively.
